Here are results for six compounds from patent US20220402867A1, “SULFO-SUBSTITUTED BIARYL COMPOUND OR SALT THEREOF, PREPARATION METHOD THEREFOR, AND USE THEREOF” (Shanghai Litedd Co., Ltd., priority 2019, published 2022).

Each structure is given as a SMILES string.

For series [1], the target named is T1, GST-RORγ LBD (263-509) (Homo sapiens, UniProt P51449).
T1 construct: GST-RORγ LBD ((263-509) (produced at ChemPartner))
T1 sequence (P51449 263-509): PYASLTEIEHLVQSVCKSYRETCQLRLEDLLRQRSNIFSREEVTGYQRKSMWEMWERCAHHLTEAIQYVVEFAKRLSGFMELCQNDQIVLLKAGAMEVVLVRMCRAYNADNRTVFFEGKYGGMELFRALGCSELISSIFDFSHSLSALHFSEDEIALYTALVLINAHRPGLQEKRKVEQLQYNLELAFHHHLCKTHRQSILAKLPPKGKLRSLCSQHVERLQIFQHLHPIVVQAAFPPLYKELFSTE
Description: TR-FRET assay of agonistic activity on RORγ receptor. Type of series: biochemical. As to conditions: for EC50: TR-FRET, GST-RORγ LBD with Biotin-SRC1; for Emax % / Emax: maximum activation rate, TOP of fitted curve. How it is done:
A time-resolved fluorescence resonance energy transfer (TR-FRET) assay was used for the compounds of the present disclosure, to determine the agonistic activity of the compounds on the RORγ protein receptor. The agonistic activity is expressed by the concentration for 50% of maximal effect (EC50). The experiment was performed basically with reference to the methods described in ONCOIMMUNOLOGY, 2016, VOL. 5, NO. 12, e1254854.
1. Preparation of RORγ Basal Buffer
A 100 mL basal buffer was prepared, mixed homogeneously and stored for use;
The compounds of the examples shown in the table below were prepared into solutions with DMSO as the solvent, serially diluted at 3-fold dilution to 10 concentrations starting from 10 mM, and added to the corresponding wells of a 384-well plate with each concentration of each compound in duplicate;
a. A 75 nM solution of GST-RORγ LBD ((263-509) (produced at ChemPartner)) and a 4 nM solution of Biotin-SRC1 (Glsbiochem) were prepared with the above basal buffer. The two solutions were 1:1 mixed evenly, and 10 μL of the mixed solution was added into each well of the above 384-well plate. The plate was immediately centrifugated at 1000 rpm for 10 seconds; b. A 1 nM solution of Anti-GST Eu (Cisbio, #61GSTKLA) and a 50 nM solution of SA-APC (Cisbio, […]) were prepared with the above basal buffer. The two solutions were 1:1 mixed evenly, and 10 μL of the mixed solution was added into each well of the above 384-well plate. The plate was immediately centrifugated at 1000 rpm for 10 seconds; c. The resulting 384-well plate was incubated at room temperature for 15 minutes. Data were read on an Envision microplate reader, EC50 values and E max % were calculated.
a. Readings were taken at 665 nm and 615 nm wavelengths respectively on the Envision Microplate Reader, and the ratios between them were normalized. b. Calculation was carried out with the following equation: […]
wherein X is the reading of compounds, Min is the reading of the blank solution, and Max is the reading of 10 μM SRC. c. The concentration-response curve data were fitted by a four-parameter logistic nonlinear regression model, and Emax was the TOP value of the fitted curve.
On the technique in general: In TR-FRET formats the signal depends on donor and acceptor labels being close together.

Series [2] can be described thus: Pharmacokinetic (PK) assay in mice. The settings on record: CD-1 mice; for CL_obs: values marked **; for AUC(0-t) / Cmax / half-life / Vd / bioavailability: mouse, plasma; for Vd: values marked *, read-out: Vss; for bioavailability: Po 5 mg/kg vs IV 1 mg/kg. The class given is in vivo. How it is done: The PK of each compound was determined as follows: 6 CD-1 mice (obtained from Shanghai Lingchang Biotechnology Co., Ltd.) were divided into two groups, 3 mice in each group. One group was administered intravenously at a dose of 1 mg/kg, and the vehicle was 5% DMSO/40% PEG400/55% (20% 3-CD); one group was administered by oral gavage at a dose of 5 mg/kg, and the vehicle was DMSO/1% methylcellulose (1:99). Blood samples were collected from saphenous vein of lower leg in each group at 0, 0.083, 0.25, 0.5, 1, 2, 4, 6, 8 and 24 h after administration. Approximately 40 μL of the blood samples were collected into anticoagulant tubes containing EDTA-K2. Immediately after collection, the tubes were inverted at least 5 times to ensure uniform mixing, and then placed on ice. The blood samples collected at each time point were centrifuged at 4° C., 8000 rpm for 5 minutes to obtain plasma. Another 1.5 mL centrifuge tube was marked with the compound name, animal number, and time point, and the plasma was transferred to this tube. The plasma was stored at −80° C. until analysis.
Compound concentrations in plasma were determined by UPLC-MS/MS method, and the pharmacokinetic parameters were calculated by Phoenix WinNolin 6.4 pharmacokinetic software on the obtained data.

In series [3] the target is T2, RORγt (RORγ-LBD chimeric receptor) (Homo sapiens, UniProt P51449).
T2 construct: host or cells: HEK293T
T2 sequence (P51449 269-508 limits assumed): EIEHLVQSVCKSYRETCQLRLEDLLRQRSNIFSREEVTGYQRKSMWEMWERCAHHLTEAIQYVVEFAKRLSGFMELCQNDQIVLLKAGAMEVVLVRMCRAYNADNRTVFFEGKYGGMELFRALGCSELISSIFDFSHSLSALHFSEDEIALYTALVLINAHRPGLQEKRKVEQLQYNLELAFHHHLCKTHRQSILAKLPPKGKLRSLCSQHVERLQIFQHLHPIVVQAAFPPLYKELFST
Description: Luciferase reporter gene assay of RORγt agonistic activity in HEK293T cells. Details: Emax: dose or concentration left out as unconfirmed. The settings on record: for EC50: HEK293T, GAL4 luciferase reporter, read-out: EC50; for Emax: HEK-293T. Type of series: cell-based. An excerpt: This assay was basically carried out according to the method described in the literature ONCOIMMUNOLOGY, 2016, VOL. 5, NO. 12, e1254854.
The RORγ-LBD coding sequence was inserted into pBIND plasmid (Promega, E1581). This expression vector and a reporter vector (pGL4.35 carrying a stably integrated luciferase reporter gene driven by GAL4 promoter) were co-expressed in HEK293T host cells. When the agonist binds to the corresponding chimeric receptor, the chimeric receptor binds to the GAL4 binding site on the reporter gene carrier and stimulates reporter gene expression. The agonistic activity of the compound on RORγ was determined according to the intensity of the chemiluminescence signal.
1.1 All test compounds were serially diluted at 3-fold dilution with DMSO, with 10 serial dilutions starting from 10 mM; LIT-00093 solution was prepared similarly. […] 1.4 The compound plate was sealed and shaken for 5 min.
Cells were cultured according to ATCC standard operation, and 6*10^6 HEK293T cells were seeded into 100 mm cell culture dishes, cultured overnight in a 37° C., 5% CO2 incubator, and then transfected. Compounds of corresponding concentrations were added for treatment, and the Steady-Glo™ kit (Lot E 2520) was used for further detection.
Chemiluminescence values were detected with Envision 2104; EC50 values were calculated.
% Activity was calculated with the following equation: […]
RLU: […] R L Upositive: average value of positive control R L Uvehicle: average value of negative control
The log values of the compound concentration and % Activity were fitted using Graphad 8.0, to calculate EC50s of the compounds.
A general note: Reporter assays use an easily measured gene product as a stand-in for the process of interest.

Series [4] can be described thus: Metabolic stability in human liver microsomes. Type of series: in vitro ADME. The source says: According to standard methods of in vitro metabolic stability studies in the art, eg., the methods described in Kerns, Edward H. and Di Li (2008). Drug-like Properties: Concepts, Structure Design and Methods: from ADME to Toxicity Optimization. San Diego: Academic Press; Di, Li et al., Optimization of a Higher Throughput Microsomal Stability Screening Assay for Profiling Drug Discovery Candidates, J. Biomol. Screen. 2003, The method described in 8(4), 453, the liver microsomal metabolic stability test of the compounds of the present disclosure was carried out analogously as follows.
The incubation system contained 0.5 mg protein/mL microsomes, cofactors, and PBS, was pre-incubated at 37° C. for 3 min, and then added the substrate (i.e., the test compounds) to initiate the reaction. Samples were taken at 0, 1, 5, 10, 15, 20, 30 and 60 min from the start of the reaction, and an appropriate terminator was added to terminate the reaction.
The terminator was an ice acetonitrile solution containing 100 ng/mL tolbutamide and 100 ng/mL labetalol.
Sample treatment (n=3): each appropriate sample was added, vortexed and centrifuged at high speed. The supernatants were collected, and the substrate was detected by HPLC-MS/MS. The peak area at the 0 min was taken as 100%. The peak areas at other time points were converted to percentage of the remaining amount. The natural logarithms of the percentage of remaining amount at each time point was plotted against the incubation time, and the slope (−k) was calculated by linear regression. Then, Clint (uL/min/mg) and half-life (T½, min) of the compounds were calculated following the equation of the inherent clearance rate (Clint)=(k* volume of incubation solution)/mass of liver microsomes.

As a reminder, the EC50 is the midpoint of the concentration-response curve. What is called AUC(0-t) is the area under the concentration-time curve up to a stated or last time point. Usually Cmax stands for the peak of the concentration-time curve. One may read the half-life as how long it takes for the measured level to halve. As usually defined, the Emax is the maximal effect, on the per cent scale that the assay sets.

In series [1], `CCS(=O)(=O)c1ccc(C(CO)C(=O)Nc2cc(Cl)c(-c3ccc(S(=O)(=O)C4CC4)cc3)c(Cl)c2)cc1` (single isomer, unassigned) [Example 39, (S)—N-(2,6-dichloro-4′-(cyclopropylsulfonyl)-[1,1′-biphenyl]-4-yl)-2-(4-(ethylsulfonyl)phenyl)-3-hydroxypropionamide or (R)—N-(2,6-dichloro-4′-(cyclopropylsulfonyl)-[1,1′-biphenyl]-4-yl)-2-(4-(ethylsulfonyl)phenyl)-3-hydroxypropionamide] gave an EC50 of 13.5 nM and an Emax % of 181.3%. For the same compound, in series [2] (IV 1 mg/kg), the CL_obs is reported as 8.22** mL/min/kg, the AUC(0-t) came out at 2050 ng·h/mL, the Cmax was 1080 ng/mL and the half-life is 3.7 h. For the same compound, in series [2] (IV 1 mg/kg), the Vd was found to be 1.53 L/kg. The bioavailability in series [2] is 17.1%. Further, in series [2] (Po 5 mg/kg), the AUC(0-t) came to 1720 ng·h/mL, the Cmax is 400 ng/mL and the half-life was 3 h.

Take `CCS(=O)(=O)c1ccc(C(COC)C(=O)Nc2cc(Cl)c(-c3ccc(S(=O)(=O)C4CC4)cc3)c(Cl)c2)cc1` (single isomer, unassigned) [Example 41, (S)—N-(2,6-dichloro-4′-(cyclopropylsulfonyl)-[1,1′-biphenyl]-4-yl)-2-(4-(ethylsulfonyl)phenyl)-3-methoxypropionamide or (R)—N-(2,6-dichloro-4′-(cyclopropylsulfonyl)-[1,1′-biphenyl]-4-yl)-2-(4-(ethylsulfonyl)phenyl)-3-methoxypropionamide]: in series [1], the EC50 came out at 24.6 nM and the Emax % was 174.7%. In series [2] (IV 1 mg/kg), the CL_obs was 15.4** mL/min/kg, the AUC(0-t) worked out at 1060 ng·h/mL, the concentration peaked (Cmax) at 601 ng/mL and the half-life was 1.7 h. For the same compound, in series [2] (IV 1 mg/kg), the Vd was 2.02 L/kg. Further, the bioavailability in series [2] came out at 116%. Also, in series [2] (Po 5 mg/kg), the AUC(0-t) was determined as 6380 ng·h/mL, the Cmax stood at 1450 ng/mL and the half-life is 2.72 h.

Take `CCS(=O)(=O)c1ccc(CC(=O)Nc2cc(Cl)c(-c3ccc(S(=O)(=O)C(C)C)cc3)c(Cl)c2)cc1` [Example 3, N-(2,6-Dichloro-4′-(isopropylsulfonyl)-[1,1′-biphenyl]-4-yl)-2-(4-(ethylsulfonyl)phenyl)acetamide]: the EC50 in series [1] and in series [3] was 14 nM each time. Further, the figures for the Emax in series [1] and in series [3] were 223% and 50.5%, respectively. The compound also yielded a half-life in series [4] of 0.232 h. In addition, in series [4] (60 min), the “% Remaining (T = 60 min)” value stood at 4.6%.

In series [1], `CCS(=O)(=O)c1ccc(C(CO)C(=O)Nc2cc(Cl)c(-c3ccc(S(=O)(=O)C4CC4)cc3)c(Cl)c2)cc1` (stereo not shown) [Example 22-1, N-(2,6-Dichloro-4′-(cyclopropylsulfonyl)-[1,1′-biphenyl]-4-yl)-2-(4-(ethylsulfonyl)phenyl)-3-hydroxypropionamide] returned an EC50 of 7 nM and an Emax of 179%. In addition, in series [3], the EC50 was determined as 139 nM and the Emax amounted to 73.8%.

In series [1], `CS(=O)(=O)c1ccc(C(CO)C(=O)Nc2cc(Cl)c(-c3ccc(S(=O)(=O)C4CC4)cc3)c(Cl)c2)cc1` (stereo not shown) [Example 33, N-(2,6-Dichloro-4′-(cyclopropylsulfonyl)-[1,1′-biphenyl]-4-yl)-2-(4-(methylsulfonyl)phenyl)-3-hydroxypropionamide] displayed an EC50 of 13.3 nM and an Emax of 202%. Moreover, in series [3], the concentration giving a half-maximal response (EC50) was determined as 93 nM and the maximum response (Emax) worked out at 69.8%.

`COCC(C(=O)Nc1ccc(-c2ccc(S(=O)(=O)C3CC3)cc2)c(C(F)(F)F)c1)c1ccc(S(C)(=O)=O)cc1` (stereo not shown) [Example 42, N-(4′-(Cyclopropylsulfonyl)-2-(trifluoromethyl)-[1,1′-biphenyl]-4-yl)-3-methoxy-2-(4-(methylsulfonyl)phenyl)propionamide]: in series [1], the EC50 stood at 12.6 nM and the Emax amounted to 194%. Further, in series [3], the EC50 was determined as 105 nM and the Emax was 60.7%.
